Measured values taken from patent US20210386069A1 (priority 2018, published 2021).

assay: log P by HPLC on a reversed-phase column (C 18), EEC Directive 79/831 Annex V.A8; assay type: physicochemical; conditions: HPLC reversed-phase C 18, 40° C., 0.1% aqueous formic acid and acetonitrile, linear gradient 10% to 95% acetonitrile
Protocol: In table 1, the log P values were determined in accordance with EEC Directive 79/831 Annex V.A8 by HPLC (High Performance Liquid Chromatography) on a reversed-phase column (C 18), using the method described below:
temperature: 40° C.; mobile phases: 0.1% aqueous formic acid and acetonitrile; linear gradient from 10% acetonitrile to 95% acetonitrile;
If more than one Log P value is available within the same method, all the values are given and separated by “;”.
Calibration was carried out using unbranched alkan-2-ones (comprising 3 to 16 carbon atoms) with known log P values (determination of the log P values by the retention times using linear interpolation between two successive alkanones). lambda-max-values were determined using UV-spectra from 200 nm to 400 nm and the peak values of the chromatographic signals.

| Compound | logP |
| --- | --- |
| Cc1nc2c(F)c(F)ccc2cc1Nc1cccc(F)c1C1=CCCCO1 [I.018] | 4.44 |
| COc1cc(-c2ccccc2Nc2cc3ccc(F)c(F)c3nc2C)c(Br)cn1 [I.135] | 4.36 |
| CCc1cnccc1-c1c(F)cccc1Nc1cc2ccc(F)c(F)c2nc1C [I.067] | 2.41 |
| Cc1nc2c(F)c(F)ccc2cc1Nc1ccccc1-c1ccnc(Cl)c1 [I.036] | 3.56 |
| Cc1cncc(-c2c(F)cccc2Nc2cc3ccc(F)c(F)c3nc2C)c1 [I.032] | 2.26 |
| Cc1nc2c(F)c(F)ccc2cc1Cc1cccc(F)c1-c1ccncc1F [I.041] | 3.40 |
| Cc1cncc(C)c1-c1c(F)cccc1Nc1cc2ccc(F)c(F)c2nc1C [I.070] | 2.28 |
| COc1ccc(-c2c(F)cccc2Nc2cc3ccc(F)c(F)c3nc2C)c(OC)n1 [I.131] | 4.43 |
| CSc1ncccc1-c1c(F)cccc1Nc1cc2ccc(F)c(F)c2nc1C [I.115] | 3.98 |
| Cc1nc2c(F)c(F)ccc2cc1Nc1ccccc1-c1cccnc1C1CC1 [I.059] | 2.80 |
| Cc1nc2c(F)c(F)ccc2cc1Nc1cccc(F)c1-c1cc(F)cnc1F [I.136] | 3.71 |
| CCOc1ccc(-c2c(F)cccc2Nc2cc3ccc(F)c(F)c3nc2C)cn1 [I.112] | 4.09 |
| Cc1nc2c(F)c(F)ccc2cc1Cc1cccc(F)c1-c1ccnc(F)c1 [I.044] | 3.65 |
| CCCc1ncccc1-c1c(F)cccc1Nc1cc2ccc(F)c(F)c2nc1C [I.109] | 2.62 |
| Cc1cc(-c2ccccc2Nc2cc3ccc(F)c(F)c3nc2C)ccn1 [I.005] | 1.75 |
| Cc1cc(Cl)ncc1-c1c(F)cccc1Nc1cc2ccc(F)c(F)c2nc1C [I.121] | 4.01 |
| Cc1nc2c(F)c(F)ccc2cc1Nc1ccccc1-c1ccc(C#N)nc1 [I.019] | 3.25 |
| CCc1ncccc1-c1ccccc1Nc1cc2ccc(F)c(F)c2nc1C [I.024] | 2.03 |
| CCOc1ccc(-c2ccccc2Nc2cc3ccc(F)c(F)c3nc2C)cn1 [I.065] | 4.02 |
| Cc1nc2c(F)c(F)ccc2cc1Cc1cccc(F)c1-c1ccncc1 [I.007] | 2.00 |
| COc1ccc(-c2ccccc2Nc2cc3ccc(F)c(F)c3nc2C)c(OC)n1 [I.108] | 4.62 |

| Compound | logP |
| --- | --- |
| Cc1nc2c(F)c(F)ccc2cc1Nc1cccc(F)c1-c1ccc(OC(C)C)nc1 [I.130] | 4.47 |
| Cc1nc2c(F)c(F)ccc2cc1Nc1ccccc1-c1ccncc1Cl [I.034] | 3.37 |
| Cc1cc(-c2ccccc2Nc2cc3ccc(F)c(F)c3nc2C)cnc1F [I.031] | 3.69 |
| Cc1cc(-c2c(F)cccc2Nc2cc3ccc(F)c(F)c3nc2C)cnc1Cl [I.119] | 3.98 |
| COc1ccc(-c2c(F)cccc2Cc2cc3ccc(F)c(F)c3nc2C)cn1 [I.073] | 3.99 |
| COc1ccncc1-c1ccccc1Nc1cc2ccc(F)c(F)c2nc1C [I.030] | 1.77 |
| COc1cccc(-c2ccccc2Nc2cc3ccc(F)c(F)c3nc2C)n1 [I.029] | 4.66 |
| CCc1ncccc1-c1c(F)cccc1Nc1cc2ccc(F)c(F)c2nc1C [I.069] | 2.41 |
| COc1c(-c2c(F)cccc2Nc2cc3ccc(F)c(F)c3nc2C)ccnc1F [I.117] | 3.75 |
| CCCc1ccncc1-c1c(F)cccc1Nc1cc2ccc(F)c(F)c2nc1C [I.111] | 2.75 |
| Cc1nc2c(F)c(F)ccc2cc1Nc1cccc(F)c1-c1ccncc1C#N [I.063] | 1.46 |
| Cc1cncc(C)c1-c1ccccc1Nc1cc2ccc(F)c(F)c2nc1C [I.025] | 2.05 |
| COc1c(-c2ccccc2Nc2cc3ccc(F)c(F)c3nc2C)ccnc1F [I.079] | 3.72 |
| Cc1nc2c(F)c(F)ccc2cc1Nc1cccc(F)c1-c1ccc(F)nc1 [I.045] | 3.46 |
| Cc1nc2c(F)c(F)ccc2cc1Nc1ccccc1-c1ccnnc1 [I.003] | 2.28 |
| COc1cc(-c2ccccc2Nc2cc3ccc(F)c(F)c3nc2C)ccn1 [I.028] | 3.56 |
| CCCc1ncccc1-c1ccccc1Nc1cc2ccc(F)c(F)c2nc1C [I.060] | 2.21 |
| Cc1nc2c(F)c(F)ccc2cc1Nc1ccccc1-c1cncc(C(F)(F)F)c1 [I.122] | 3.65 |
| Cc1nc2c(F)c(F)ccc2cc1Nc1ccccc1-c1cc(F)cnc1Cl [I.097] | 3.81 |
| COc1ncccc1-c1c(F)cccc1Cc1cc2ccc(F)c(F)c2nc1C [I.075] | 3.79 |
| CSc1ncccc1-c1ccccc1Nc1cc2ccc(F)c(F)c2nc1C [I.072] | 4.08 |

| Compound | logP |
| --- | --- |
| Fc1ccc(Nc2cnc3ccccc3c2)c(-c2cccnc2)c1 [I.001] | 1.39 |
| Cc1nc2c(F)c(F)ccc2cc1Nc1cccc(F)c1-c1ccncc1Cl [I.093] | 3.46 |
| Cc1nc2c(F)c(F)ccc2cc1Nc1cccc(F)c1-c1cc(Cl)ncc1F [I.126] | 3.98 |
| CCc1cnccc1-c1ccccc1Nc1cc2ccc(F)c(F)c2nc1C [I.022] | 2.08 |
| Cc1nc2c(F)c(F)ccc2cc1Nc1cccc(F)c1-c1cccnc1 [I.009] | 2.28 |
| Cc1nc2c(F)c(F)ccc2cc1Nc1ccccc1-c1cncc(C#N)c1 [I.020] | 3.04 |
| COc1ccncc1-c1c(F)cccc1Nc1cc2ccc(F)c(F)c2nc1C [I.082] | 1.84 |
| Cc1nc2c(F)c(F)ccc2cc1Nc1cccc(F)c1-c1cc(F)nc(F)c1 [I.100] | 3.98 |
| Cc1nc2c(F)c(F)ccc2cc1Nc1ccccc1-c1cccc(Cl)n1 [I.035] | 4.97 |
| COc1cc(-c2c(F)cccc2Nc2cc3ccc(F)c(F)c3nc2C)ccn1 [I.083] | 3.71 |
| Cc1nc2c(F)cccc2cc1Nc1cc(F)ccc1-c1ccncc1F [I.012] | 2.95 |
| Cc1nc2c(F)c(F)ccc2cc1Nc1ccccc1-c1ccc(OC(C)C)nc1 [I.107] | 4.43 |
| Cc1nc2c(F)c(F)ccc2cc1Nc1ccccc1-c1cncc(F)c1Cl [I.090] | 3.62 |
| Cc1nc2c(F)c(F)ccc2cc1Nc1ccccc1-c1ccc(C(F)(F)F)nc1 [I.123] | 3.91 |
| Cc1nc2c(F)c(F)ccc2cc1Nc1ccccc1-c1ccncc1C1CC1 [I.058] | 2.12 |
| Cc1nc2c(F)c(F)ccc2cc1Cc1cccc(F)c1-c1cccnc1 [I.008] | 2.64 |
| Cc1nc2c(F)c(F)ccc2cc1Nc1ccccc1-c1cc(Cl)ncc1F [I.098] | 3.91 |
| Cc1nc2c(F)c(F)ccc2cc1Nc1ccccc1-c1cnccc1C1CC1 [I.057] | 2.05 |
| COc1ncc(-c2c(F)cccc2Cc2cc3ccc(F)c(F)c3nc2C)cn1 [I.078] | 3.25 |
| COc1nccc(-c2ccccc2Nc2cc3ccc(F)c(F)c3nc2C)c1Cl [I.116] | 4.09 |
| Cc1nc2c(F)c(F)ccc2cc1Nc1cccc(F)c1-c1ccnc(F)c1Cl [I.129] | 3.98 |

| Compound | logP |
| --- | --- |
| Cc1cc(Cl)ncc1-c1ccccc1Nc1cc2ccc(F)c(F)c2nc1C [I.086] | 3.98 |
| Cc1nc2c(F)c(F)ccc2cc1Nc1ccccc1-c1ccc(Cl)nc1C [I.085] | 3.94 |
| COc1cccc(-c2c(F)cccc2Cc2cc3ccc(F)c(F)c3nc2C)n1 [I.074] | 3.79 |
| Cc1nc2c(F)c(F)ccc2cc1Nc1cccc(F)c1-c1ccc(Cl)nc1C [I.120] | 4.01 |
| Cc1nc2c(F)c(F)ccc2cc1Nc1cccc(F)c1-c1cccnc1F [I.047] | 3.35 |
| Cc1nc2c(F)c(F)ccc2cc1Nc1cccc(F)c1-c1ccc(Cl)nc1 [I.092] | 3.72 |
| Fc1cc(-c2cscc2Cc2cnc3c(F)cccc3c2)ccn1 [I.139] | 3.11 |
| Cc1nc2c(F)cccc2nc1Nc1cccc(F)c1-c1ccncc1F [I.015] | 2.67 |
| COc1cnccc1-c1ccccc1Nc1cc2ccc(F)c(F)c2nc1C [I.027] | 2.14 |
| Cc1nc2c(F)c(F)ccc2cc1Nc1ccccc1-c1cncc(Cl)c1 [I.040] | 3.54 |
| Cc1nc2c(F)c(F)ccc2cc1Nc1cccc(F)c1-c1cc(Cl)cnc1F [I.128] | 4.05 |
| Cc1nc2c(F)c(F)ccc2cc1Nc1ccc(F)cc1-c1ccncc1F [I.049] | 3.24 |
| Cc1nc2c(F)c(F)ccc2cc1Cc1cccnc1-c1ccnc(F)c1 [I.137] | 2.52 |
| Cc1nc2c(F)c(F)ccc2cc1Nc1cccc(F)c1-c1cncc(C(F)(F)F)c1 [I.133] | 3.75 |
| CSc1ccc(-c2c(F)cccc2Nc2cc3ccc(F)c(F)c3nc2C)cn1 [I.114] | 3.91 |
| COc1ncc(-c2c(F)cccc2Nc2cc3ccc(F)c(F)c3nc2C)cn1 [I.088] | 3.08 |
| Cc1nc2c(F)c(F)ccc2cc1Nc1cccc(F)c1-c1cncc(C#N)c1 [I.064] | 3.16 |
| CCOc1ncccc1-c1ccccc1Nc1cc2ccc(F)c(F)c2nc1C [I.066] | 4.24 |

same assay, conditions: reversed-phase HPLC column (C 18); preparation examples; log P as defined in table 1 (HPLC, 0.1% aqueous formic acid/acetonitrile)

| Compound | chromatographic logP |
| --- | --- |
| ClCc1cscc1Br [3-bromo-4-(chloromethyl)thiophene] | 2.99 |
| Cc1nc2c(F)c(F)ccc2cc1Nc1cccc(F)c1Br [N-(2-bromo-3-fluorophenyl)-7,8-difluoro-2-methylquinolin-3-amine] | 3.28 |
| Cc1nc2c(F)c(F)ccc2cc1Nc1cccc(F)c1-c1cnccc1C1CC1 [I.104, N-[2-(4-cyclopropylpyridin-3-yl)-3-fluorophenyl]-7,8-difluoro-2-methylquinolin-3-amine] | 2.12 |
| Nc1cccc(F)c1-c1ccncc1F | 2.38 |
| Cc1nc2c(F)c(F)ccc2cc1Cc1cscc1-c1ccnc(F)c1 [I.138, 7,8-difluoro-3-{[4-(2-fluoropyridin-4-yl)-3-thienyl]methyl}-2-methylquinoline] | 3.64 |
| Cc1nc2c(F)c(F)ccc2cc1Cc1cccc(F)c1-c1ccc(F)nc1 [I.042, 7,8-difluoro-3-[3-fluoro-2-(6-fluoropyridin-3-yl)benzyl]-2-methylquinoline] | 3.7 |
